SMILES strings stand for the structures. Where only a bound is given, the exact number is not on record here.

Experiment in all cases: In vitro antibacterial activity, agar dilution MIC
Holding throughout (format): cell-based

The test system of test [1] is Staphylococcus aureus 1775. To be noted: code GG: Staphylococcus aureus 1775; BHI agar, 35-37° C., 20 to 24 hours; unit assumed. Here is the method: (§1) Representative compounds of the present invention were assayed in vitro for antibacterial activity as follows: Twelve petri dishes containing successive aqueous dilutions of the test compound mixed with 10 mL of sterilized Brain Heart Infusion (BHI) agar (Difco 0418-01-5) were prepared. Each plate was inoculated with 1:100 (or 1:10 for slow-growing strains, such as Micrococcus and Streptococcus) dilutions of up to 32 different microorganisms, using a Steers replicator block. The inoculated plates were incubated at 35-37° C. for 20 to 24 hours. In addition, a control plate, using BHI agar containing no test compound, was prepared and incubated at the beginning and end of each test.
(§2) An additional plate containing a compound having known susceptibility patterns for the organisms being tested and belonging to the same antibiotic class as the test compound was also prepared and incubated as a further control, as well as to provide test-to-test comparability. Erythromycin A was used for this purpose.
(§3) After incubation, each plate was visually inspected. The minimum inhibitory concentration (MIC) was defined as the lowest concentration of drug yielding no growth, a slight haze, or sparsely isolated colonies on the inoculum spot as compared to the growth control.

For test [2], the system named is Staphylococcus aureus ATCC 6538P. To be noted: code AA: Staphylococcus aureus ATCC 6538P; BHI agar, 35-37° C., 20 to 24 hours; unit assumed. Here is the method: as §1, §2, §3
For a further test, the system named is Escherichiacoli SS. To be noted: code RR: Escherichiacoli SS; BHI agar, 35-37° C., 20 to 24 hours; unit assumed. How it is done: as §1, §2, §3
The test system of test [3] is Staphylococcus aureus A-5278. To be noted: code CC: Staphylococcus aureus A-5278; BHI agar, 35-37° C., 20 to 24 hours; unit assumed. Here is the method:
as §1, §2, §3

Test [4] relates to Streptococcus Pneumonia GYR 1171. To be noted: code YY: Streptococcus Pneumonia GYR 1171; BHI agar, 35-37° C., 20 to 24 hours; unit assumed. Here is the method: as §1, §2, §3
For test [5], the system named is Micrococcusluteus ATCC 4698. To be noted: code PP: Micrococcusluteus ATCC 4698; BHI agar, 35-37° C., 20 to 24 hours; unit assumed. Here is the method: as §1, §2, §3
The test system of test [6] is Streptococcus pyogenes EES61. To be noted: code LL: Streptococcus pyogenes EES61; BHI agar, 35-37° C., 20 to 24 hours; unit assumed. Here is the method:
as §1, §2, §3

The test system of test [7] is Streptococcus agalactiae CMX 508. To be noted: code KK: Streptococcus agalactiae CMX 508; BHI agar, 35-37° C., 20 to 24 hours; unit assumed. How it is done: as §1, §2, §3
For test [8], the system named is Haemophilislnfluenzae DILL AMP R. To be noted: code WW: Haemophilislnfluenzae DILL AMP R; BHI agar, 35-37° C., 20 to 24 hours; unit assumed. Here is the method: as §1, §2, §3
For test [9], the system named is Mycobacterium smegmatis ATCC 114. To be noted: code UU: Mycobacterium smegmatis ATCC 114; BHI agar, 35-37° C., 20 to 24 hours; unit assumed. How it is done:
as §1, §2, §3

Test [10] concerns Streptococcus bovis A-5169. To be noted: code JJ: Streptococcus bovis A-5169; BHI agar, 35-37° C., 20 to 24 hours; unit assumed. How it is done: as §1, §2, §3
Test [11] deals with Streptococcus pyogenes 930. To be noted: code MM: Streptococcus pyogenes 930; BHI agar, 35-37° C., 20 to 24 hours; unit assumed. How it is done: as §1, §2, §3
The subject of test [12] is Streptococcus Pneumonia ATCC 6303. To be noted: code XX: Streptococcus Pneumonia ATCC 6303; BHI agar, 35-37° C., 20 to 24 hours; unit assumed. Here is the method: as §1, §2, §3
In test [13] the test system is Staphylococcus epidermidis 3519. To be noted: code HH: Staphylococcus epidermidis 3519; BHI agar, 35-37° C., 20 to 24 hours; unit assumed. Here is the method:
as §1, §2, §3

A further test has as its system Escherichiacoli JUHL. To be noted: code QQ: Escherichiacoli JUHL; BHI agar, 35-37° C., 20 to 24 hours; unit assumed. Here is the method: as §1, §2, §3
In test [14] the test system is Staphylococcus aureus NCTC 10649M. To be noted: code EE: Staphylococcus aureus NCTC 10649M; BHI agar, 35-37° C., 20 to 24 hours; unit assumed. Here is the method:
as §1, §2, §3

A further test has as its system Candida albicans CCH 442. To be noted: code TT: Candida albicans CCH 442; BHI agar, 35-37° C., 20 to 24 hours; unit assumed. How it is done:
as §1, §2, §3

Test [15] deals with Staphylococcus aureus A-5177. To be noted: code BB: Staphylococcus aureus A-5177; BHI agar, 35-37° C., 20 to 24 hours; unit assumed. How it is done:
as §1, §2, §3

The test system of test [16] is Streptococcus Pneumonia 5649. To be noted: code ZA: Streptococcus Pneumonia 5649; BHI agar, 35-37° C., 20 to 24 hours; unit assumed. Here is the method: as §1, §2, §3
In test [17] the test system is Nocardia Asteroides ATCC 99700. To be noted: code VV: Nocardia Asteroides ATCC 99700; BHI agar, 35-37° C., 20 to 24 hours; unit assumed. How it is done: as §1, §2, §3
The test system of test [18] is Streptococcus pyogenes PIU 2548. To be noted: code NN: Streptococcus pyogenes PIU 2548; BHI agar, 35-37° C., 20 to 24 hours; unit assumed. How it is done:
as §1, §2, §3

In test [19] the test system is Streptococcus Pneumonia 5979. To be noted: code ZZ: Streptococcus Pneumonia 5979; BHI agar, 35-37° C., 20 to 24 hours; unit assumed. Here is the method:
as §1
An additional plate containing a compound having known susceptibility patterns for the organisms being tested and belonging to the same antibiotic class as the test compound was also prepared and incubated as a further control, as well as to provide test-to-test comparability.
as §3

`CCC1OC(=O)C(C)C(=O)C(C)C(OC2OC(C)CC(N(C)C)C2O)C(C)(OCC=Cc2cnc3ccccc3c2)CC(C)CN(C)C(C)C(O)C1(C)O` (stereo not drawn) [Example 5, Compound of formula (II): R^1 is —CH2CH═CH-(3-quinolinyl), R^2 and R^3 together are oxo, R^4 is hydrogen, R^5 is hydrogen, R^6 is methyl, R^8 is hydrogen]: the Antibacterial Activity (MIC) is over 100 mg/L in test [1]; 0.2 mg/L in test [2]; 0.78 mg/L in the test on Escherichiacoli SS; over 100 mg/L in test [3]; 0.03 mg/L in test [4]; 0.39 mg/L in test [5]. Also, the Antibacterial Activity (MIC) in test [6] is 0.05 mg/L; in test [7], 0.05 mg/L; in test [8], 4 mg/L; in test [9], 6.2 mg/L; in test [10] it was 0.02 mg/L; in test [11], over 100 mg/L. Further, the Antibacterial Activity (MIC) is 0.06 mg/L in test [12]; 0.2 mg/L in test [13]; 50 mg/L with Escherichiacoli JUHL; 0.39 mg/L in test [14]; over 100 mg/L with Candida albicans CCH 442; 12.5 mg/L in test [15]. Besides, the Antibacterial Activity (MIC) in test [16] is 8 mg/L; in test [17], 0.1 mg/L; in test [18] it was 6.2 mg/L; in test [19], over 128 mg/L.

Turning to `CCC1OC(=O)C(C)C(=O)C(C)C(OC2OC(C)CC(N(C)C)C2O)C(C)(OCC=Cc2cnc3ccccc3c2)CC(C)CN(C)C(C)C2OC(=O)OC12C` (stereo not drawn) [Example 6, Compound of formula (II): R^1 is —CH2CH═CH-(3-quinolinyl), R^2 and R^3 together are oxo, R^4 and R^5 together are —C(O)—, R^6 is methyl, R^8 is hydrogen], the Antibacterial Activity (MIC) in test [1] is over 100 mg/L; in test [2], 0.2 mg/L; with Escherichiacoli SS, 0.78 mg/L; in test [3] it was over 100 mg/L; in test [4], 0.03 mg/L; in [5], 0.39 mg/L. Besides, the Antibacterial Activity (MIC) was 0.05 mg/L in [6]; 0.05 mg/L in [7]; 4 mg/L in test [8]; 6.2 mg/L in [9]; 0.02 mg/L in test [10]; over 100 mg/L in test [11]. In addition, the Antibacterial Activity (MIC) in test [12] was 0.06 mg/L; in test [13], 0.2 mg/L; in the test with Escherichiacoli JUHL, 50 mg/L; in [14] it was 0.39 mg/L; in the test on Candida albicans CCH 442 it was over 100 mg/L; in test [15], 12.5 mg/L. Also, the Antibacterial Activity (MIC) in test [16] was 8 mg/L; in test [17], 0.1 mg/L; in test [18], 6.2 mg/L; in test [19] it was over 128 mg/L.

Turning to `CCC1OC(=O)C(C)C(OC2CC(C)(OC)C(O)C(C)O2)C(C)C(OC2OC(C)CC(N(C)C)C2O)C(C)(OCC=Cc2cnc3ccccc3c2)CC(C)CN(C)C(C)C(O)C1(C)O` (stereo not drawn) [Example 7, Compound of formula (I): R^1 is —CH2CH═CH-(3-quinolinyl), R^4 is hydrogen, R^5 is hydrogen, R^6 is methyl, R^7 is hydrogen, R^8 is hydrogen], the Antibacterial Activity (MIC) in [1] was over 100 mg/L; in test [2], 0.1 mg/L; in the test on Escherichiacoli SS it was 0.39 mg/L; in test [3] it was over 100 mg/L; in test [4], 0.12 mg/L; in test [5], 0.2 mg/L. The Antibacterial Activity (MIC) is 0.05 mg/L in test [6]; 0.1 mg/L in [7]; 8 mg/L in [8]; 6.2 mg/L in [9]; 0.1 mg/L in test [10]; over 100 mg/L in [11]. Besides, the Antibacterial Activity (MIC) was 0.12 mg/L in [12]; 0.2 mg/L in test [13]; 100 mg/L with Escherichiacoli JUHL; 0.39 mg/L in [14]; over 100 mg/L with Candida albicans CCH 442; 3.1 mg/L in [15]. For the same compound, the Antibacterial Activity (MIC) in [16] is 16 mg/L; in test [17] it was 0.05 mg/L; in [18], 6.2 mg/L; in test [19] it was over 128 mg/L.

The values above are taken from patent US6764996B1, “9a-azalides with antibacterial activity” (Abbott Laboratories, priority 1999, dated 2004).
